PMC10318822, “Phase 1 dose-escalation study to evaluate the safety, tolerability, pharmacokinetics, and anti-tumor activity of FCN-159 in adults with neurofibromatosis type 1-related unresectable plexiform neurofibromas” (BMC Medicine, 2023)

Test system: adult patients with NF1-related PN
Assay: Phase I dose-escalation: DLT, MTD, RP2D and drug-related TEAEs (CTCAE v5.0)
Experimental: This is a multicenter, open-label, single-arm, non-randomized, phase I dose-escalation trial to evaluate the safety, tolerability, pharmacokinetic (PK), and anti-tumor activity of orally administered FCN-159 in adult patients with NF1 (NCT04954001). Phase I commenced with dose escalation in adult patients following a standard 3 + 3 design (Supplementary Table S1) to determine the maximum tolerated dose (MTD) of FCN-159 administered daily under fasting conditions (defined as no food or drink 1 h before and 2 h after each dose) in 28-day cycles. Study drug was dispensed at the study site and patient adherence was monitored by the records of drug dispensation and return. Patients were on treatment until PD, death, patient's voluntary withdrawal from study treatment, or study termination. The study was followed for 2 years after the last patient in. The starting dose was 4 mg, escalating in cohorts of at least three evaluable patients at 6 mg, 8 mg, and 12 mg until the MTD was determined. The starting dose in this study was determined based on available data from a phase 1a, first-in-human study of FCN-159 in patients with advanced NRAS ^mut+ melanoma at the time of study design. […] Dose expansion at a likely RP2D level enrolled approximately six patients. The highest dose level with a dose-limiting toxicity (DLT) incidence rate ≤ 33% (0/3 or 1/6 patients) was to be considered the MTD. If patients experienced grade ≥ 3 and/or unacceptable toxic events that were considered as at least possibly related to the study treatment, the study treatment was discontinued and supportive treatment was given in accordance with local treatment routines. If the toxicity returned to grade ≤ 2 within 28 days after the occurrence, and there was no progression on patients’ conditions or the investigator believed that patients could benefit from the study treatment, the original dose could be maintained or reduced after discussion with medical monitor. After completion of the dose escalation part of the study, PK, efficacy, safety, and tolerability data were analyzed to select the RP2D.
Primary endpoints of the study were the DLT incidence rate, MTD, and RP2D. Secondary endpoints included other safety assessments, imaging tumor response (complete response [CR], PR, stable disease [SD], or progressive disease [PD]), and PK parameters of FCN-159. Adverse events were graded per CTCAE v5.0.
All patients underwent a complete medical history, physical examination, Eastern Cooperative Oncology Group (ECOG) assessment, and laboratory analysis of test results. Drug-related TEAEs, serious adverse events (SAEs), TEAEs of grade ≥ 3 toxicity, and TEAEs leading to drug discontinuation were reviewed on an ongoing basis. Efficacy was assessed by radiologic scans and clinical assessment. Tumor assessments per Response Evaluation in Neurofibromatosis Schwannomatosis criteria were performed by investigators using MRI volumetric analysis every 4 cycles within the first 2 years (± 7 days) and every 6 cycles after 2 years (± 14 days) until PD, death, patient's voluntary withdrawal from study treatment, or study termination. MRI sequences of […], T1- and T2-weighted sequences were chosen and the software of Extended Brilliance Workspace, SIGNA Premier and uExceed were used for MRI volumetric analysis. The same software was used for all tumor assessments at baseline and subsequent assessed timepoints of the same patient. Pain was assessed by an 11-point numerical rating scale (NRS-11).
The sample size for the dose-escalation study was estimated to be 24 based on the 3 + 3 method. Safety was analyzed in patients who received at least one dose of FCN-159 and had at least one safety assessment. DLT was assessed in the DLT analysis set, defined as patients who were enrolled in the dose-escalation study and met the DLT evaluation criteria.

Cn1c(=O)c(F)c(Nc2ccc(I)cc2F)c2c(=O)n(C3CC3)nc(-c3cccc(NS(=O)(=O)C4CC4)c3)c21 [FCN-159]
Drug-related TEAE: Urticaria (12 mg (N = 4)): 1 (25.0) n (%) | Drug-related TEAE: Vision blurred (12 mg (N = 4)): 0 n (%) | Drug-related TEAE: Visual acuity reduced (12 mg (N = 4)): 0 n (%) | Drug-related TEAE: pH urine decreased (12 mg (N = 4)): 0 n (%) | Drug-related TEAE: pH urine increased (12 mg (N = 4)): 0 n (%) | Subjects with any drug-related TEAE (12 mg (N = 4)): 4 (100) n (%) | Patients with DLT (grade 3 folliculitis) (12 mg, 3 of 3 patients): 100% | Drug-related TEAE: Abdominal pain (Total (N = 19)): 1 (5.3) n (%) | Drug-related TEAE: Acne (Total (N = 19)): 1 (5.3) n (%) | Drug-related TEAE: Acne pustular (Total (N = 19)): 1 (5.3) n (%) | Drug-related TEAE: Alanine aminotransferase increased (Total (N = 19)): 2 (10.5) n (%) | Drug-related TEAE: Albumin globulin ratio decreased (Total (N = 19)): 1 (5.3) n (%) | Drug-related TEAE: Alopecia (Total (N = 19)): 5 (26.3) n (%) | Drug-related TEAE: Amylase increased (Total (N = 19)): 1 (5.3) n (%) | Drug-related TEAE: Anemia (Total (N = 19)): 1 (5.3) n (%) | Drug-related TEAE: Aortic dilatation (Total (N = 19)): 1 (5.3) n (%) | Drug-related TEAE: Aspartate aminotransferase increased (Total (N = 19)): 2 (10.5) n (%) | Drug-related TEAE: Asthenia (Total (N = 19)): 1 (5.3) n (%) | Drug-related TEAE: Beta globulin decreased (Total (N = 19)): 1 (5.3) n (%) | Drug-related TEAE: Beta globulin increased (Total (N = 19)): 2 (10.5) n (%) | Drug-related TEAE: Blood alkaline phosphatase increased (Total (N = 19)): 6 (31.6) n (%) | Drug-related TEAE: Blood bilirubin increased (Total (N = 19)): 5 (26.3) n (%) | Drug-related TEAE: Blood creatine phosphokinase increased (Total (N = 19)): 3 (15.8) n (%) | Drug-related TEAE: Blood fibrinogen increased (Total (N = 19)): 4 (21.1) n (%) | Drug-related TEAE: Blood lactate dehydrogenase increased (Total (N = 19)): 4 (21.1) n (%) | Drug-related TEAE: Blood pressure increased (Total (N = 19)): 1 (5.3) n (%) | Drug-related TEAE: Blood urea increased (Total (N = 19)): 4 (21.1) n (%) | Drug-related TEAE: Blood uric acid increased (Total (N = 19)): 2 (10.5) n (%) | Drug-related TEAE: Breath odor (Total (N = 19)): 3 (15.8) n (%) | Drug-related TEAE: Capillary disorder (Total (N = 19)): 1 (5.3) n (%) | Drug-related TEAE: Constipation (Total (N = 19)): 3 (15.8) n (%) | Drug-related TEAE: Decreased appetite (Total (N = 19)): 1 (5.3) n (%) | Drug-related TEAE: Dermatitis acneiform (Total (N = 19)): 1 (5.3) n (%) | Drug-related TEAE: Diarrhea (Total (N = 19)): 1 (5.3) n (%) | Drug-related TEAE: Drug eruption (Total (N = 19)): 5 (26.3) n (%) | Drug-related TEAE: Dyslipidemia (Total (N = 19)): 2 (10.5) n (%) | Drug-related TEAE: Ejection fraction decreased (Total (N = 19)): 1 (5.3) n (%) | Drug-related TEAE: Electrocardiogram QT prolonged (Total (N = 19)): 1 (5.3) n (%) | Drug-related TEAE: Electrocardiogram abnormal (Total (N = 19)): 2 (10.5) n (%) | Drug-related TEAE: Epistaxis (Total (N = 19)): 2 (10.5) n (%) | Drug-related TEAE: Folliculitis (Total (N = 19)): 9 (47.4) n (%) | Drug-related TEAE: Functional gastrointestinal disorder (Total (N = 19)): 1 (5.3) n (%) | Drug-related TEAE: Gamma-glutamyltransferase increased (Total (N = 19)): 1 (5.3) n (%) | Drug-related TEAE: Gingival pain (Total (N = 19)): 1 (5.3) n (%) | Drug-related TEAE: Hyperlipidemia (Total (N = 19)): 1 (5.3) n (%) | Drug-related TEAE: Hypertension (Total (N = 19)): 1 (5.3) n (%) | Drug-related TEAE: Hypoalbuminemia (Total (N = 19)): 1 (5.3) n (%) | Drug-related TEAE: Hypocalcemia (Total (N = 19)): 2 (10.5) n (%) | Drug-related TEAE: Hypophosphatemia (Total (N = 19)): 1 (5.3) n (%) | Drug-related TEAE: Hypoproteinemia (Total (N = 19)): 1 (5.3) n (%) | Drug-related TEAE: Immunoglobulins increased (Total (N = 19)): 4 (21.1) n (%) | Drug-related TEAE: Impetigo (Total (N = 19)): 1 (5.3) n (%) | Drug-related TEAE: Left atrial enlargement (Total (N = 19)): 1 (5.3) n (%) | Drug-related TEAE: Lipoprotein abnormal (Total (N = 19)): 1 (5.3) n (%) | Drug-related TEAE: Malaise (Total (N = 19)): 1 (5.3) n (%) | Drug-related TEAE: Menstrual disorder (Total (N = 19)): 2 (10.5) n (%) | Drug-related TEAE: Mitral valve incompetence (Total (N = 19)): 4 (21.1) n (%) | Drug-related TEAE: Mouth ulceration (Total (N = 19)): 4 (21.1) n (%) | Drug-related TEAE: Muscular weakness (Total (N = 19)): 1 (5.3) n (%) | Drug-related TEAE: Oedema peripheral (Total (N = 19)): 1 (5.3) n (%) | Drug-related TEAE: Pain in extremity (Total (N = 19)): 1 (5.3) n (%) | Drug-related TEAE: Paronychia (Total (N = 19)): 6 (31.6) n (%) | Drug-related TEAE: Prealbumin decreased (Total (N = 19)): 1 (5.3) n (%) | Drug-related TEAE: Protein urine present (Total (N = 19)): 5 (26.3) n (%) | Drug-related TEAE: Pruritus (Total (N = 19)): 1 (5.3) n (%) | Drug-related TEAE: QRS axis abnormal (Total (N = 19)): 4 (21.1) n (%) | Drug-related TEAE: Rash (Total (N = 19)): 3 (15.8) n (%) | Drug-related TEAE: Sinus arrhythmia (Total (N = 19)): 1 (5.3) n (%) | Drug-related TEAE: Sinus bradycardia (Total (N = 19)): 1 (5.3) n (%) | Drug-related TEAE: Sinusitis (Total (N = 19)): 1 (5.3) n (%) | Drug-related TEAE: Skin exfoliation (Total (N = 19)): 1 (5.3) n (%) | Drug-related TEAE: Specific gravity urine increased (Total (N = 19)): 5 (26.3) n (%) | Drug-related TEAE: Stomatitis (Total (N = 19)): 7 (36.8) n (%) | Drug-related TEAE: Supraventricular extrasystoles (Total (N = 19)): 1 (5.3) n (%) | Drug-related TEAE: Total bile acids increased (Total (N = 19)): 3 (15.8) n (%) | Drug-related TEAE: Tricuspid valve incompetence (Total (N = 19)): 3 (15.8) n (%) | Drug-related TEAE: Urinary occult blood positive (Total (N = 19)): 3 (15.8) n (%) | Drug-related TEAE: Urinary sediment present (Total (N = 19)): 1 (5.3) n (%) | Drug-related TEAE: Urinary tract infection (Total (N = 19)): 1 (5.3) n (%) | Drug-related TEAE: Urine ketone body present (Total (N = 19)): 2 (10.5) n (%) | Drug-related TEAE: Urobilinogen urine increased (Total (N = 19)): 5 (26.3) n (%) | Drug-related TEAE: Urticaria (Total (N = 19)): 1 (5.3) n (%) | Drug-related TEAE: Vision blurred (Total (N = 19)): 1 (5.3) n (%) | Drug-related TEAE: Visual acuity reduced (Total (N = 19)): 1 (5.3) n (%) | Drug-related TEAE: pH urine decreased (Total (N = 19)): 3 (15.8) n (%) | Drug-related TEAE: pH urine increased (Total (N = 19)): 2 (10.5) n (%) | Subjects with any drug-related TEAE (Total (N = 19)): 19 (100) n (%) | Patients with grade 3 drug-related folliculitis (all dose levels): five | Patients with grade 3 drug-related paronychia (all dose levels): four | Patients with FCN-159-related TEAEs (all dose levels, n = 19): 100% | Patients with grade 3 study-drug-related TEAEs (all dose levels, nine of 19 patients): 47.4% | Blurred vision (all patients, n = 1/19): 5.3% | Reduced visual acuity (all patients, n = 1/19): 5.3% | Drug-related TEAE mouth ulceration (all patients, n = 4/19): 21.1% | Drug-related TEAE increased blood alkaline phosphatase (all patients, n = 6/19): 31.6% | Drug-related TEAE paronychia (all patients, n = 6/19): 31.6% | Drug-related TEAE stomatitis (all patients, n = 7/19): 36.8% | Drug-related TEAE folliculitis (all patients, n = 9/19): 47.4% | Drug-related gastrointestinal disorders (all patients, twelve patients): 63.2% | Patients with eye disorders (all patients, two patients): 10.5% | Recommended phase II dose (RP2D) (daily): 8 mg | Maximum tolerated dose (MTD) (daily, 28-day cycles, fasting): 8 mg | Deaths during the study (in vivo): No patients died | Dose reduction (mainly due to grade 3 paronychia and folliculitis): 42.1% | Grade 3 drug-related TEAE in patients receiving doses below the MTD (paronychia, 6 mg dose): Only one | SAE during treatment that led to drug withdrawal (rhegmatogenous retinal detachment, present at baseline, considered unrelated to the study drug): One patient
